Earlier results on one compound are cited in patent publication US6534285B1 (priority 1984, dated 2003).

The data set deals with AIDS reverse transcriptase (Human immunodeficiency virus type 1 group M subtype B, UniProt P04585). As to conditions: reference 53.

Turning to `Cc1ccc(C(=O)Nc2ccc(S(=O)(=O)O)c3cc(S(=O)(=O)O)cc(S(=O)(=O)O)c23)cc1NC(=O)c1cccc(NC(=O)Nc2cccc(C(=O)Nc3cc(C(=O)Nc4ccc(S(=O)(=O)O)c5cc(S(=O)(=O)O)cc(S(=O)(=O)O)c45)ccc3C)c2)c1` [Suramin], the “inhibition of AIDS reverse transcriptase” value is listed as “known inhibitor”.
